According to patent publication US4330558A, “Pharmaceutical composition and method for treating peripheral orthostatic hypotension” (Sumitomo Chemical Company, Limited, priority 1980, dated 1982):
Like-named read-outs stand apart in the source and are kept apart here.

Tests used:
[1] = test system: patients with FAP; assay type: in vivo, human; settings: 600 mg oral
Protocol: (2) Oral administration test of DL-threo-DOPS
The test was carried out by administering orally 600 mg of DL-threo-DOPS to nine persons (4-normal persons and 5 FAP patients). Plasma norepinephrine levels and blood pressure were determined.
In the graphs A to C of FIG. 2, the abscissa axes indicate time (hrs.) and the ordinate axes indicate plasma norepinephrine level (pg/ml), change in maximum blood pressure (mmHg) and minimum blood pressure (mmHg), respectively. The results are expressed as mean±S.E.

[2] = test system: FAP patients; assay: Long term oral administration of DL-threo-DOPS in FAP patients (simple blind test, 4 weeks); assay type: in vivo, human; settings: 1.2 g/day oral
Protocol: (3) Long term oral administration of DL-threo-DOPS The clinical trial was carried out according to a simple blind test procedure. […] The patients refrained from taking any drug for one week before administration of DL-threo-DOPS. After 4 weeks of administration period of DL-threo-DOPS,the patients were given placebos containing lactose. […] In the graphs A to F of FIG. […] The results are expressed as mean±S.E.

[3] = test system: patients suffering from various kinds of orthostatic hypotension; assay: Effect of intravenous DL-threo-DOPS on blood pressure in patients suffering from various kinds of orthostatic hypotension; assay type: in vivo, human; settings: i.v. drip infusion
Protocol: Under the same condition as in FAP, DL-threo-DOPS was administered intravenously to patients suffering from familial diabetes mellitus, aortitis syndrome, idiopathic orthostatic hypotension, acute pan-dysautonomia and ectopic pineal tumor, respectively. Changes in pulse rate and blood pressure were determined. In the graphs A to D of FIGS. 4, 5, 6, 7 and 8, the abscissa axes indicate time (min.) and the ordinate axes indicate change in pulse rate, maximum blood pressure (mmHg) and minimum blood pressure (mmHg), and drip infusion rate of DL-threo-DOPS (mg/min.), respectively.

[4] = test system: patients with FAP; assay: Intravenous drip infusion test of DL-threo-DOPS in normal persons and FAP patients (pulse rate, blood pressure); assay type: in vivo, human; settings: 200 mg i.v. drip infusion over 2 hours
Protocol: (1) Intravenous drip infusion test of DL-threo-DOPS The test was carried out by administering 200 mg of DL-threo-DOPS in 400 ml of isotonic sodium chloride solution over 2 hours to four persons (2 normal persons and 2 FAP patients) by intravenous drip infusion (1.7 mg/min.). Changes in pulse rate and blood pressure were determined. In the graphs A to D of FIG. 1, the abscissa axes indicate time (min.) and the ordinate axes indicate changes in pulse rate, maximum blood pressure (mmHg) and minimum blood pressure (mmHg), and drip infusion rate of DL-threo-DOPS (mg/min.), respectively. In the graphs A to C, the symbol o indicates normal subjects (2 persons) and .cndot., FAP patients (2 persons).

[5] = test system: mice; assay: Acute toxicity, LD50 in mice; assay type: in vivo
Text: (§1) Toxicity of threo-DOPS is extremely low. LD50 value in mice is more than 10 g/kg (p.o.) and about 10 g/kg (i.p.).

[6] = Acute toxicity, LD50 in mice; assay type: in vivo; settings: mouse, in vivo
Text: as §1

[7] = test system: orthostatic hypotension; assay: Clinical effect of threo-DOPS on blood pressure, summary of the pharmacological tests; assay type: in vivo, human
[8] = Clinical observation of side effects; assay type: in vivo, human
[9] = in a certain case; cited from earlier work
[10] = Comparison of effectiveness of L-isomer and DL-isomer in the pharmacological tests; assay type: in vivo; settings: L-isomer vs DL-isomer
Text: In general, threo-DOPS exists as optical isomers and there are the L- and D-isomers as well as the racemic DL-isomer. The term "threo-DOPS" used herein means DL-threo-DOPS and L-threo-DOPS.

[11] = test system: aromatic L-amino acid decarboxylase; settings: in the living body; cited from earlier work
[12] = summary of the pharmacological tests

N[C@H](C(=O)O)[C@H](O)c1ccc(O)c(O)c1 (relative stereo) [DL-threo-DOPS, DL-threo-3,4-dihydroxyphenylserine]
change in plasma norepinephrine level ([1]; FAP patients (FIG. 2)): almost parallel with that of blood pressure | time at which plasma norepinephrine level was restored to the normal level after oral administration ([1]; FAP patients (FIG. 2)): 5 h | absorption after oral administration ([1]; inferred from the results): absorbed in the intestine | conversion by aromatic L-amino acid decarboxylase after oral administration ([1]; inferred from the results): converted to (-) norepinephrine | hypertensive action ([1]; FAP patients (5)): gradual and sustained hypertensive action | time of peak of hypertensive action after oral administration ([1]; FAP patients (5)): 5 h | change in blood pressure ([1]; normal subjects (4)): no significant change in blood pressure was observed | activity of daily living [2]: restored | dizziness and giddiness caused by orthostatic hypotension [2]: mitigated | side effect [2]: No side effect was observed | blood pressure at 11 a.m. and 1 p.m. ([2]; three patients suffering from orthostatic hypotension, 3 and 5 hours after administration): a significant rise of blood pressure was observed | pressor response ([3]; acute pan-dysautonomia, person): Pressor response was observed | pressor response ([3]; aortitis syndrome, person): Pressor response was observed | selectivity for type of orthostatic hypotension ([3]; conclusion from cases (1) to (5)): selective effect on the "peripheral" type of orthostatic hypotension | pressor response ([3]; ectopic pineal tumor, person): Pressor response was not observed | pressor response ([3]; familial diabetes mellitus, patient A (asymptomatic orthostatic hypotension)): showed pressor response | pressor response ([3]; idiopathic orthostatic hypotension, person): Pressor response was observed | blood pressure response ([4]; FAP patients (2)): a sensitive hypertensive response was observed | time course of the response ([4]; FAP patients (2)): gradual and sustained | change in blood pressure ([4]; normal persons (2)): did not change either pulse rate or blood pressure | change in pulse rate ([4]; normal persons (2)): did not change either pulse rate or blood pressure

N[C@H](C(=O)O)[C@H](O)c1ccc(O)c(O)c1 (relative stereo) [threo-DOPS, threo-3,4-dihydroxyphenylserine]
toxicity [5]: extremely low | LD50 ([6]; ip): ~10000 mg/kg | LD50 ([6]; po): > 10000 mg/kg | effect on orthostatic hypotension ([7]; FAP as model of dysautonomia syndrome): effective on orthostatic hypotension, inducing substantial and sustained elevation of blood pressure | effect on blood pressure of normal subjects and of patients suffering from central orthostatic hypotension [7, 12]: does not have a significant effect on blood pressure | effect on peripheral orthostatic hypotension [7, 12]: selective effect on "peripheral" orthostatic hypotension | side effect observed clinically [8]: no side effect is observed clinically

NC(C(=O)O)C(O)c1ccc(O)c(O)c1 (centres unmarked) [DOPS]
effect on blood pressure [9]: anti-hypertensive action

N[C@H](C(=O)O)[C@H](O)c1ccc(O)c(O)c1 [L-threo-DOPS, L-threo-3,4-dihydroxyphenylserine]
amount for the same effect relative to the DL-isomer [10]: same effect as the DL-isomer in one half the amount | effectiveness relative to the DL-isomer [10]: about twice as effective as the DL-isomer | conversion by aromatic L-amino acid decarboxylase [11]: converted to (-) norepinephrine
